Structures are written as SMILES.

One data set deals with Slc:SD rats. The experiment in a line: Water-immersion stress ulceration method (antiulcer activity). The data set is classed as in vivo, rat (male Slc:SD). The settings on record: 30 minutes before stress loading; for U.I. (ulcer index) Mean ± S.E.: non-treated control 13.4 ± 2.71. As for the experimental part:
After stress loading for 7 hours, the rats were killed through exsanguination, and the stomachs were removed, perfused in the inside with 10 ml of 2% formalin and then immersed in the same solution for 10 minutes for fixation. The stomachs were incised along the greater curvature, and the ulcers thus induced were measured for length under the stereoscopic microscope (magnification×10), whereby the total sum of the lengths was taken as an ulcer index (U.I., in mm). The test substance was given orally to rats in the form of a 4% gum arabic suspension 30 minutes before stress loading.

The next data set is described as follows: Acute toxicity. The settings on record: mouse, in vivo; mice, oral, single dose, observed for 7 days. On the set-up: species or system mouse (male ddY). From the text: A group of five male ddY mice (4-weeks aged) was used for testing.
The compound of Example 4 was suspended in 4% gum arabic solution to prepare a test pharmaceutical, which was given orally to each test animal once.

Setting [1] is: 30 mg/kg orally, test substance marked *p < 0.05.

On to `CN/C(=N/CCSCc1nc[nH]c1C)NC#N` [Cimetidine, reference compound], for which, in the data set with Slc:SD rats (30 mg/kg orally), the “U.I. (ulcer index) Mean ± S.E.” value turned out to be 5.2 ± 3.40 mm. In the data set on Slc:SD rats (setting [1]), this compound showed an Inhibition rate of 61.4%.

As to `Cc1ccc(Nc2ccccc2NC(=O)C[n+]2ccccc2)cc1.[Cl-]` [Example 4, 1-[2-[[2-[(4-methylphenyl)amino]phenyl]amino]-2-oxoethyl]pyridinium chloride], the Inhibition rate in the data set on Slc:SD rats (10 mg/kg orally) came to 19.0%; with Slc:SD rats (setting [1]), 75.1%; in the data set with Slc:SD rats (100 mg/kg orally, marked **p < 0.01), 90.0%. For the same compound, the “U.I. (ulcer index) Mean ± S.E.” value in the data set on Slc:SD rats (10 mg/kg orally) was determined as 10.8 ± 3.15 mm; with Slc:SD rats (30 mg/kg orally), 3.3 ± 1.82 mm; in the data set on Slc:SD rats (100 mg/kg orally) it was 1.3 ± 0.88 mm. In “Acute toxicity”, the median lethal dose (LD50) at 168 h was ≥ 2000 mg/kg.

For orientation: LD50 means the dose at which mortality reaches 50%. A high value points to lower toxicity.

Source of the values: US5055469A, “Quaternary pyridinium salts useful for ulcer treatment” (Hamari Chemicals, Ltd., priority 1988, dated 1991).
